Results as given in patent US20100063112A1, “POLYMORPH III OF 4-[4-(AMINO)-3-FLUOROPHENOXY]-N-METHYLPYRIDINE-2-CARBOXAMIDE” (BAYER SCHERING PHARMA AKTIENGESELLSCHAFT, priority 2006, published 2010).

Assay: solubility in water and in organic solvents
Format: physicochemical

CNC(=O)c1cc(Oc2ccc(NC(=O)Nc3ccc(Cl)c(C(F)(F)F)c3)c(F)c2)ccn1 [polymorph III, 4-[4-({[4-chloro-3-(trifluoromethyl)phenyl]carbamoyl}amino)-3-fluorophenoxy]-N-methylpyridine-2-carboxamide in the polymorph III]
solubility in organic solvents (organic solvents): high | solubility in water (water): high
